A short description of data set [1]: Plasma and brain levels of L-tyrosine after intraperitoneal injection to rats. The settings on record: rat; for concentration at 0.5 h / concentration at 2 h: ip, 1620 umol/kg.
Method: Male CD-COBS rats (Charles River, Italy) weighing 200 g were used. The animals housed under standard conditions of light-dark cycle, temperature and humidity with free access to water and food. […] Controls received saline. Rates were killed by decapitation 30 and 120 min. after treatment. Plasma and brain were rapidly removed and kept at -20° C. until assay.
Data set [2] can be described thus: Plasma and brain levels of L-tyrosine after intravenous injection to rats. It is filed as in vivo, rat (male CD-COBS). Particulars: rat, i.v. 1.62 mmol/kg, Table I. From the text: Controls received saline.

From US4826817A, “Amino acid and hydroxyamino acid transporter compounds for therapeutic applications, process and use” (priority 1986, dated 1989) come the findings set out here.

Take `N[C@@H](Cc1ccc(O)cc1)C(=O)O` [L-tyrosine]: in data set [1] (brain), the concentration at 0.5 h was determined as 20200 ± 1750 ng/g and the concentration at 2 h worked out at 21800 ± 1520 ng/g. In addition, the “brain L-tyrosine concentrations (in words)” value in data set [1] (i.p. 1.62 mmol/kg, both intervals (30 and 120 min), Table II, L-tyrosine p<0.05, O-L-lysyl-L-tyrosine p<0.01) is “significantly increased”. In addition, in data set [1] (plasma), the concentration at 0.5 h is 16900 ± 2060 ng/g and the concentration at 2 h stood at 12700 ± 2230 ng/g.
As for `NCCCC[C@H](N)C(=O)Oc1ccc(C[C@H](N)C(=O)O)cc1` [O-L-lysyl-L-tyrosine], in data set [2], the “Plasma L-tyrosine (in words)” value is recorded as “significantly raised by only 30 min. after the i.v. dose”. Further, the “brain L-tyrosine concentrations (in words)” value in data set [2] (both intervals (30 and 120 min)) is “significantly increased”.
